Data published in paper PMC8333425, “Discovery of a dual Ras and ARF6 inhibitor from a GPCR endocytosis screen” (Nature Communications, 2021).
Values joined by “and” are separate entries in the source; they are usually repeats but may differ in a detail not shown here. Equal entries are not always repeated.

Experiments:
[1] = target: T1, Gαq (Homo sapiens, UniProt P50148); assay: Gαq BRET sensor, AT1R-mediated; type: cell-based
T1 construct: expressed in transfected cells; host or cells: HEK293SL
T1 sequence (P50148 whole entry): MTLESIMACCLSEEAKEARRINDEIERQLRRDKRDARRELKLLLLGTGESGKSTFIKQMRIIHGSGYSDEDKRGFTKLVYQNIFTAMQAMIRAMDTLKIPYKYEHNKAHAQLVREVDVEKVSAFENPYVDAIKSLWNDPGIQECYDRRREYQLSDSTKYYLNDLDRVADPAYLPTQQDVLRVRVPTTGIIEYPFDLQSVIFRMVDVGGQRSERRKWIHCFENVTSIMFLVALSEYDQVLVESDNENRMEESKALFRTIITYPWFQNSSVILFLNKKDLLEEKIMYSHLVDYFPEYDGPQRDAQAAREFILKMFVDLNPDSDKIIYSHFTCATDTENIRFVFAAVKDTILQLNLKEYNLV
T1 sequence (P62873 whole entry partner): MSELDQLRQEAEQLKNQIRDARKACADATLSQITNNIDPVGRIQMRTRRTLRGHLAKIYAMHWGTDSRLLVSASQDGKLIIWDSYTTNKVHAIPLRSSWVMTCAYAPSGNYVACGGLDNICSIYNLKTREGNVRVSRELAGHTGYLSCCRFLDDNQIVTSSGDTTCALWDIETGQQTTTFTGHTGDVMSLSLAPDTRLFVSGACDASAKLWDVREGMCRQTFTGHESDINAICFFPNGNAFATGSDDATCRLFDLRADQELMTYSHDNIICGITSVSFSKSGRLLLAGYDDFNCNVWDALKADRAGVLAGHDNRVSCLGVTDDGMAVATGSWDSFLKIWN
T1 sequence (P63211 2-71 partner limits assumed): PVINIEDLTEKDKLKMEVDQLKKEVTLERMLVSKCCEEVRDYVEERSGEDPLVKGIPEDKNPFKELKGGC
Protocol: HEK293SL cells were seeded at a density of 7.5 × 10^5 cells per 100-mm dish and 24 h later, transiently transfected as such. For receptor internalization experiments, cells were transfected with 0.12 μg AT1R-RlucII, B2R-RlucII, or β2AR-RlucII and 0.48 μg of either rGFP-CAAX (to assess removal from the PM) or rGFP-FYVE (to assess accumulation in the endosomes). For β-arrestin recruitment assays, cells were transfected with 0.48 μg of receptor-YFP along with 0.12 μg of β-arrestin-RlucII. For β-arrestin/AP-2 binding experiments, cells were transfected with 1 μg Flag-AT1R, 1 μg β2-Adaptin-YFP, and 0.12 μg β-arrestin2-RlucII. For G protein activation, cells were transfected with 3 μg of sp-Flag-AT1R along with either 4.5 μg of the Gαq-polycistronic BRET sensor or 0.24 μg of the Gαi3-RlucII and 0.6 μg of GFP10-Gγ2 and Gβ1 sensors or 0.12 μg PKN-RBD-RlucII and 0.48 μg of rGFP-CAAX. For PKC activation, cells were transfected with 3 μg of sp-Flag-AT1R and 0.18 μg of the PKC sensor. For GTPase activation experiments, cells were transfected with 1 μg Flag-AT1R, 0.48 μg of rGFP-CAAX, and either 0.12 μg of GGA3-PBD-RlucII, PAK-CRIB-RlucII or Raf-RBD-RlucII. For biosensor validation experiments, cells were additionally transfected with 500 ng Flag-K-Ras-WT, Flag-K-Ras-G12V, Flag-K-Ras-SOS-CAAX, HA-ARF6-WT, HA-ARF6-T27N, Myc-Rac1-WT, Myc-Rac1-Q61L or Myc-Rac1-T17N. For PI3K/Akt activation experiments, cells were transfected with 0.48 μg of rGFP-CAAX and 0.12 μg of Akt (PH)-RlucII. After 18 h of transfection, the media was replaced and cells were divided for subsequent experiments. Cells were detached and seeded onto poly-L-ornithine-coated 96-well flat white bottom plates (BrandTech Scientific) at a density of 2.5 × 10^4 cells per well in media. […] For kinetics of β-arrestin recruitment or β-arrestin binding to receptor and AP-2 experiments, cells were serum starved for 30 min, pretreated with 21 (50 µM) or Barbadin (100 µM) for 30 min, stimulated with 100 nM AngII or 1 µM BK and BRET signals were monitored at indicated times using a Victor X Light plate reader (PerkinElmer). […] The BRET ratio was determined by calculating the ratio of the light emitted by YFP over the light emitted by the RlucII. […] For the kinetics of GTPase and PI3K/Akt activation, cells were serum starved, pretreated with 21 (50 µM) or Wortmannin (200 nM) for 30 min, stimulated with ligand (100 nM AngII or 100 ng/ml EGF) and BRET signals were monitored at indicated times. […] BRET signals were monitored using a Synergy2 (BioTek) microplate reader and coelenterazine 400a (final concentrations of 5 µM) added 3–5 min prior to BRET measurements. […] The BRET ratio was determined by calculating the ratio of the light emitted by rGFP/GFP10 over the light emitted by the RlucII.

[2] = tested on: PKC; assay: PKC BRET sensor, AT1R-mediated; type: cell-based, human
Protocol: HEK293SL cells were seeded at a density of 7.5 × 10^5 cells per 100-mm dish and 24 h later, transiently transfected as such. For receptor internalization experiments, cells were transfected with 0.12 μg AT1R-RlucII, B2R-RlucII, or β2AR-RlucII and 0.48 μg of either rGFP-CAAX (to assess removal from the PM) or rGFP-FYVE (to assess accumulation in the endosomes). For β-arrestin recruitment assays, cells were transfected with 0.48 μg of receptor-YFP along with 0.12 μg of β-arrestin-RlucII. For β-arrestin/AP-2 binding experiments, cells were transfected with 1 μg Flag-AT1R, 1 μg β2-Adaptin-YFP, and 0.12 μg β-arrestin2-RlucII. […] For kinetics of β-arrestin recruitment or β-arrestin binding to receptor and AP-2 experiments, cells were serum starved for 30 min, pretreated with 21 (50 µM) or Barbadin (100 µM) for 30 min, stimulated with 100 nM AngII or 1 µM BK and BRET signals were monitored at indicated times using a Victor X Light plate reader (PerkinElmer). […] The BRET ratio was determined by calculating the ratio of the light emitted by YFP over the light emitted by the RlucII. […] For the kinetics of GTPase and PI3K/Akt activation, cells were serum starved, pretreated with 21 (50 µM) or Wortmannin (200 nM) for 30 min, stimulated with ligand (100 nM AngII or 100 ng/ml EGF) and BRET signals were monitored at indicated times. […]

[3] = target: H-Ras (Homo sapiens, UniProt P01112); assay: In vitro mant-GTP exchange assay, purified H-Ras with 40 mM EDTA; type: biochemical; design: the cDNA of H-Ras (full length) was obtained by RT-PCR of HEK293SL; GST (N); made in house; host or cells: E. coli BL21
H-Ras, sequence (P01112 whole entry): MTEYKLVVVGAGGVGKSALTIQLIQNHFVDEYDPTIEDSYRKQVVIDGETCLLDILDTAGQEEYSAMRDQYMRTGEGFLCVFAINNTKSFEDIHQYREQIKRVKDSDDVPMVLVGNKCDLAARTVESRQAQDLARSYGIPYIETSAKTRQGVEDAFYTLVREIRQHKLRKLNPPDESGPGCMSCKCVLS
Protocol: Ras activity was assessed in a 384-well black bottom plate using the mant-GTP exchange factor assay that measures the uptake of the fluorescent nucleotide analog N-methylanthraniloyl-GTP (mant-GTP) into GTPases. For Ras activation, 2X exchange buffer, 1.66 μg of purified pGEX-6P-1-H-Ras or pGEX-6P-1-K-Ras-WT or pGEX-6P-1-K-Ras-Y32A were added per well in presence of DMSO, different concentrations of Rasarfin (as indicated) or 50 µM of compounds 21.4, 21.7, or 21.8. Using the Infinite 200 Pro plate reader (Tecan) with filters set at 360 nm and 440 nm for detecting the excitation and emissions, respectively, and temperature set at 20 °C, 5 readings were recorded every 5 s before the addition of either H2O, 40 mM EDTA or 0.66 μg purified SOS1. The fluorescence of mant-GTP uptake was measured every 30 sec for 30 min and quantified as the delta relative fluorescence units (RFU), which was calculated as the RFU post-addition minus the 5 averaged RFU pre-addition, per condition.

CC(C)C(=O)N1CCN(c2ccc(NC(=O)c3cc4ccccc4o3)cc2Cl)CC1 [Compound 21]
Mean Diff. DMSO vs. compound, Gq (Dunnett's multiple comparisons test) [1]: 0.009667
Gαq engagement by AT1R (BRET sensor) ([1]; 50 μM): lack of inhibitory effects
Gq BRET sensor signal (S_Fig.4b), single experiments ([1]; listed as Comp 21): 0.1945 and 0.171 and 0.2095
AT1R-mediated PKC activation ([2]; 50 μM): did not inhibit AT1R-mediated PKC activation
PKC BRET sensor signal (S_Fig.4b), single experiments ([2]; listed as Comp 21): 0.07767 and 0.069 and 0.0815
mant-GTP binding to purified H-Ras promoted by EDTA [3]: also inhibited mant-GTP binding promoted by EDTA
